The values that follow come from ChEMBL document CHEMBL5728788, “Inhibitors of dihydroceramide desaturase for treating disease” (2021).

SMILES strings stand for the structures.

The target of the experiment is T1, Sphingolipid delta(4)-desaturase DES1 (Homo sapiens, UniProt O15121).
T1 sequence (O15121 whole entry): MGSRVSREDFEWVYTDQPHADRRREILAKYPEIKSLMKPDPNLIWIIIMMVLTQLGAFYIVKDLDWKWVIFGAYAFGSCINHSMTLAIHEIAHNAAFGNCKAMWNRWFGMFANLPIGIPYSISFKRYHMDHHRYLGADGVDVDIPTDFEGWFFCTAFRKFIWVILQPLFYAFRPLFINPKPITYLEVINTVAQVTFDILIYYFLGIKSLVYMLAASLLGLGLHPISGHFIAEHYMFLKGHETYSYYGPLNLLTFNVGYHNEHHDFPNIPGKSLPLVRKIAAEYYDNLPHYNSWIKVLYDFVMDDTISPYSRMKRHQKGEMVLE
Briefly: Des1 Activity Assays: Jurkat clone E6-1 cells were grown and then seeded at 10^6 cells/mL in a 96-well plate (400 μL in each well. The cells were administered 100 μL of cell culture media containing 50-μM NBD-C6-dihydroceramide (Des1 substrate), affording a final concentration of substrate of 10 μM. The cells were incubated with substrate at 4° C. for 30 minutes. Following the incubation at 4° C., the cell suspension was centrifuged at 1200 rpm for 3 minutes, and the cell pellet is resuspended in 400 μL of fresh media containing various concentrations of either fenretinide (known Des1 inhibitor control compound) or test article. The final concentrations of control compound and test compounds were tested in a range from 0-10 μM. The cells and compounds were incubated at 37° C. for 3 hours. Following the 3-hour incubation, the plate was centrifuged at 2500 g for 3 minutes at 4° C., followed by collection and transfer of 200 μL of the supernatant to a new 96-well plate with 300 μL of methanol an containing appropriate internal standards for liquid chromatography/tandem mass spectroscopy (LC/MS/MS) analysis (internal standard: 500 nM labetalol and 100 nM alprazolam). The samples were vortexed for 2 minutes followed by centrifugation at 3,220 g for 20 minutes. Following centrifugation, 200 μL of the supernatant was transferred to a new 96-well plate for LC-MS/MS analysis to determine the amount of NBD-C6-ceramide (Des1 product) produced. The assay was typically performed in duplicate. A reduction of at least 30% compared to vehicle control (0 μM test article) is indicative of an active compound, and a reduction of 75% compared to vehicle control is preferred. Format: cell-based.
Take `O=C(Nc1ccc(O)cn1)c1ccc(-c2cccnc2)cc1`: the IC50 was found to be 130 nM. Regarding `O=C(Cc1ccccc1)Nc1ccc(O)cn1`, the IC50 came to 4500 nM. Consider `O=C(CC1CCN(c2ccc(Cl)cn2)CC1)Nc1ccc(O)cn1`, for which the IC50 came to 3.9 nM.

A word on the IC50: it is the concentration needed to halve the response being measured.
